We go through six molecules from ChEMBL document CHEMBL1128860, “5-O-Carboxymethyl piperazide derivatives of serotonin: a new class of potent and selective 5-HT1D receptor agonists” (Bioorg Med Chem Lett, 1995).

Bounds are passed on as bounds.

One assay concerns the target D(2) dopamine receptor (Homo sapiens, UniProt P14416). Briefly: Compound was tested for its affinity towards dopaminergic (D2) receptor.
Assay [1] addresses T1, 5-hydroxytryptamine receptor 2C (Homo sapiens, UniProt P28335).
T1 sequence (P28335 whole entry): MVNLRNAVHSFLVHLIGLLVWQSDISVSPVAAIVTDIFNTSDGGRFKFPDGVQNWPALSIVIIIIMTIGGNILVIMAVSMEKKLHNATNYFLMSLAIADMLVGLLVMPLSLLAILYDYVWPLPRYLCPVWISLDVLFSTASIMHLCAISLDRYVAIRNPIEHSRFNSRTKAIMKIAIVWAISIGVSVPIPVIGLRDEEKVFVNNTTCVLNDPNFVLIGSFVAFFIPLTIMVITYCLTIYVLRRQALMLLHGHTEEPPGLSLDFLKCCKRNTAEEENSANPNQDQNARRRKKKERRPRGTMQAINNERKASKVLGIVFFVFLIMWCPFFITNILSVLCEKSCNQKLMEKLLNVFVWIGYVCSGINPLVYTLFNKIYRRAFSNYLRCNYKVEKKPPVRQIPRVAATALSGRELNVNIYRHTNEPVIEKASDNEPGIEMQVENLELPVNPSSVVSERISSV
In words: (§1) Compound was tested for its affinity towards 5-hydroxytryptamine 1C receptor.

In assay [2] the target is Serotonin 2 (5-HT2) receptor (Homo sapiens, UniProt P41595+P28223+P28335). Briefly: Compound was tested for its affinity towards 5-hydroxytryptamine 2 receptor. The format is protein assay.
Assay [3] has as its target T2, 5-hydroxytryptamine receptor 3A (Homo sapiens, UniProt P46098).
T2 sequence (P46098 whole entry): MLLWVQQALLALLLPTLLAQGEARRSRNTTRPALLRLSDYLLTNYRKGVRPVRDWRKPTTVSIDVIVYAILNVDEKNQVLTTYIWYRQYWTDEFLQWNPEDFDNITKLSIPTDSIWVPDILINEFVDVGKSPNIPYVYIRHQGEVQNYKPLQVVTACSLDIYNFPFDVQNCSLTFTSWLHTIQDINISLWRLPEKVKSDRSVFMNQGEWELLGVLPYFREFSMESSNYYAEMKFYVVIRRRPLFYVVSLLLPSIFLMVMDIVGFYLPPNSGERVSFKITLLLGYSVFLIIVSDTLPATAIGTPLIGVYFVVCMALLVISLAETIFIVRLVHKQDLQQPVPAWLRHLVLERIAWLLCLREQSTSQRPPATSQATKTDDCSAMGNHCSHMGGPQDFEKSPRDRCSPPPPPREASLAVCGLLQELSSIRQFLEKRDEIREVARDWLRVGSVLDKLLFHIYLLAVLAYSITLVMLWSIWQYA
Briefly: (§2) Compound was tested for its affinity towards 5-hydroxytryptamine 3 receptor.

Assay [4] has as its target T3, 5-hydroxytryptamine receptor 4 (Homo sapiens, UniProt Q13639). Briefly: Compound was tested for its affinity towards 5-hydroxy tryptamine 4 receptor.
For assay [5], the target named is T4, Adrenergic receptor alpha-1 (Homo sapiens, UniProt P35348+P25100+P35368).
T4 sequence (P35348 whole entry): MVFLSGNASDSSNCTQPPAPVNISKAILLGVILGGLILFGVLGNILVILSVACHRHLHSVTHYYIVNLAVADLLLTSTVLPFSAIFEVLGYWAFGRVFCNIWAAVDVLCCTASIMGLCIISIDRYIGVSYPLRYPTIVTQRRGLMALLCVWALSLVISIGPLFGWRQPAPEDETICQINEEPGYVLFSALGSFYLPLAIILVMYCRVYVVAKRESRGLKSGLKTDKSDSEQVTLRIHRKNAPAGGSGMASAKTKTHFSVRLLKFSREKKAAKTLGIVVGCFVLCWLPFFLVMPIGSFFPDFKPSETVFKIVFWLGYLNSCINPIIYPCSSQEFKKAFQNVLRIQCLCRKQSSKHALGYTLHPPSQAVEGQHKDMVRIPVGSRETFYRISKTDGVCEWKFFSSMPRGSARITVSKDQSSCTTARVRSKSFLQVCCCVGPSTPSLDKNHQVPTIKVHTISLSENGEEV
T4 sequence (P25100 whole entry): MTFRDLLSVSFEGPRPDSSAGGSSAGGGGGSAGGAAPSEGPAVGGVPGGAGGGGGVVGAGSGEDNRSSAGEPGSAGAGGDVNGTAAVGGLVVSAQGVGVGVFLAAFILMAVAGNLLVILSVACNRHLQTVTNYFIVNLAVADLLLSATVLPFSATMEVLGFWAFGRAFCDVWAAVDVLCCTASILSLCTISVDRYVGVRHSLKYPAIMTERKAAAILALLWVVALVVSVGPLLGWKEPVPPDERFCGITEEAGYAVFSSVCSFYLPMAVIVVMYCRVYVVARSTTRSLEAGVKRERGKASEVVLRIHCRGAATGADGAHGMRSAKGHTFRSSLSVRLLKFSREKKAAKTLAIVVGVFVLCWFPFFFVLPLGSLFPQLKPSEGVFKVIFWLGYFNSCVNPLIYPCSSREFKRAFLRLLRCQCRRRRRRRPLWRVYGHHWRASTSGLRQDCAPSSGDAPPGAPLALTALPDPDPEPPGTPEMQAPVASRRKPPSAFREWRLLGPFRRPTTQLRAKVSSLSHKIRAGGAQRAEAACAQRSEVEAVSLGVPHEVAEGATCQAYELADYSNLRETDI
T4 sequence (P35368 whole entry): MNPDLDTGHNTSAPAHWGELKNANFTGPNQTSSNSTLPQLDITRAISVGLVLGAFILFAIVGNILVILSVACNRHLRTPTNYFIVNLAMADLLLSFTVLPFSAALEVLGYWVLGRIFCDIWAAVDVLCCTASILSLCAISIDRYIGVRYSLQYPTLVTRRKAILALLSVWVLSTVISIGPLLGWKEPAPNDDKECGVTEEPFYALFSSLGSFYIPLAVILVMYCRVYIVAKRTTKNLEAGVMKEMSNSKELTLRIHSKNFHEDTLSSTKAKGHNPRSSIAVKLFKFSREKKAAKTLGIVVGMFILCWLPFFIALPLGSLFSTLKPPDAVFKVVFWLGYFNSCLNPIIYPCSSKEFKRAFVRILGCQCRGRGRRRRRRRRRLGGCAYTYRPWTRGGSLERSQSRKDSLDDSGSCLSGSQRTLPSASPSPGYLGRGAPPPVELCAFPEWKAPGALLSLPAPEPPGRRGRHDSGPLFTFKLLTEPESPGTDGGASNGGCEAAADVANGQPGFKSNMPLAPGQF
Briefly: Compound was tested for its affinity towards Alpha-1 adrenergic receptor. The format is protein assay.

For another assay, the target named is Histamine H1 receptor (Homo sapiens, UniProt P35367). In words: Compound was tested for its affinity towards histaminergic (H 1) receptor.
Chain of Histamine H1 receptor (P35367 whole entry): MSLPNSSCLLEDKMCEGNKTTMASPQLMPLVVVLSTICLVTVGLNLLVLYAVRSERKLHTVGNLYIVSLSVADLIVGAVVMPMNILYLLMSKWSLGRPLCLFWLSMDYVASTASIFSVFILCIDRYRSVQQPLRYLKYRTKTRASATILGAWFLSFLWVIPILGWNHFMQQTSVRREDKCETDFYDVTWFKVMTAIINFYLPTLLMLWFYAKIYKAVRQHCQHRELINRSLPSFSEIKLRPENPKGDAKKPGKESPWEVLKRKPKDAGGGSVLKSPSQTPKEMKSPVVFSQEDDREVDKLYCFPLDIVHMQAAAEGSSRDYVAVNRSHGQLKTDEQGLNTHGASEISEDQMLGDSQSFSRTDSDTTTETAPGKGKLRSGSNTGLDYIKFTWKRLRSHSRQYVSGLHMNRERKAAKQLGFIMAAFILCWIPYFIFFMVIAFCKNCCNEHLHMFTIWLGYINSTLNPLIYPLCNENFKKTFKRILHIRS
In assay [6] the target is T5, Muscarinic acetylcholine receptor M4 (Homo sapiens, UniProt P08173).
T5 sequence (P08173 whole entry): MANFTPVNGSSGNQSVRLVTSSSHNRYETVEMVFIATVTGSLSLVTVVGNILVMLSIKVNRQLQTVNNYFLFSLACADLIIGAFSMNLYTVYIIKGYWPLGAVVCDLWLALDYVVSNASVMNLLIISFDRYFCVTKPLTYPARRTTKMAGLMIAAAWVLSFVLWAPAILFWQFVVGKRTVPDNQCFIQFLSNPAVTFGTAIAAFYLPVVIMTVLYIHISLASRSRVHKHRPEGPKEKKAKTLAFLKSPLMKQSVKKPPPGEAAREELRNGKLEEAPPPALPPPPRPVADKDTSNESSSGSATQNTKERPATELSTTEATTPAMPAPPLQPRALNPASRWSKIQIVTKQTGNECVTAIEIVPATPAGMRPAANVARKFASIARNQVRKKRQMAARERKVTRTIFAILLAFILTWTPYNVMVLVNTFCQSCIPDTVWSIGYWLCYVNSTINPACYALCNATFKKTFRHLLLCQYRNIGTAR
Briefly: Compound was tested for its affinity towards muscarinic (M) receptor.

For another assay, the species on record is Oryctolagus cuniculus. In words: Compound was tested for its ability to contract rabbit saphenous vein. The format is functional.
Assay [7] concerns the target 5-hydroxytryptamine receptor 1D (Cavia porcellus, UniProt Q60484). Briefly: Binding affinity towards guinea pig 5-hydroxytryptamine 1D receptor was determined.
Assay [8] concerns the target T6, 5-hydroxytryptamine receptor 2C (Rattus norvegicus, UniProt P08909).
T6 sequence (P08909 whole entry): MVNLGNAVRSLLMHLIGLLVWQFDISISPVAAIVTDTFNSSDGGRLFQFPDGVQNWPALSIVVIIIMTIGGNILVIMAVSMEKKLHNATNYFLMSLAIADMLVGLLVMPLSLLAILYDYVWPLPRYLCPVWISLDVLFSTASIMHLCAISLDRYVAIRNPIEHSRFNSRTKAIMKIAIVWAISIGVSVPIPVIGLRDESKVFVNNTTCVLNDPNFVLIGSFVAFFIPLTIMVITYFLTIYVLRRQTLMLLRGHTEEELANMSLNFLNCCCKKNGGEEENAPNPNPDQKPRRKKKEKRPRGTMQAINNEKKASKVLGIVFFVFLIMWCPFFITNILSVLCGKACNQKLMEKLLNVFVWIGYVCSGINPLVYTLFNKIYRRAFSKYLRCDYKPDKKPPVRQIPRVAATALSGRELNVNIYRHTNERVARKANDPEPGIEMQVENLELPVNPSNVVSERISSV
Described as §1.

Assay [9] has as its target 5-hydroxytryptamine receptor 1D (Homo sapiens, UniProt P28221). Briefly: Binding affinity towards cloned human 5-hydroxytryptamine 1D receptor alpha was determined.
Assay [10] has as its target T7, 5-hydroxytryptamine receptor 1A (Homo sapiens, UniProt P08908).
T7 sequence (P08908 whole entry): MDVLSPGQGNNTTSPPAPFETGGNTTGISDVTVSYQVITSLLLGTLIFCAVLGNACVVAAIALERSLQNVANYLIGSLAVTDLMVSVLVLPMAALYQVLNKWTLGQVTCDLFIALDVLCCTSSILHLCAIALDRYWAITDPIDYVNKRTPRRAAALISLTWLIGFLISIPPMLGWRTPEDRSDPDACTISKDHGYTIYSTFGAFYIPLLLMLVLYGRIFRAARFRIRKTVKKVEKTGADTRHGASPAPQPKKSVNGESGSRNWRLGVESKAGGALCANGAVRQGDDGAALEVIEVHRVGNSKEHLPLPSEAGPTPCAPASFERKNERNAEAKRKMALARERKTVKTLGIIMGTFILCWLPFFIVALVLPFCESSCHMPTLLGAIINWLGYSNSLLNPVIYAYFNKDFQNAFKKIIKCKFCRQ
In words: Binding affinity towards cloned human 5-hydroxytryptamine 1A receptor was determined.

The target of assay [11] is Serotonin 3 (5-HT3) receptor. The assay is described as §2. The format is protein-complex assay.
The target of assay [12] is T3, 5-hydroxytryptamine receptor 4. In words: Compound was tested for its affinity towards 5-hydroxytryptamine 4 receptor.
The target of assay [13] is T7, 5-hydroxytryptamine receptor 1A. In words: Compound was tested for its ability to inhibit forskolin-stimulated activity of adenylate cyclase coupled to human 5-hydroxytryptamine 1A receptor in HeLa cells; value ranges from 95-320. Type of assay: functional, cell-based.
For assay [14] the target is unchanged. Briefly: Compound was tested for its ability to inhibit forskolin-stimulated activity of adenylate cyclase coupled to human 5-HT 1A receptor in HeLa cells; value ranges from 85-370. Type of assay: functional, cell-based.

Chain of 5-hydroxytryptamine receptor 1D (Homo sapiens, UniProt P28221) (P28221 whole entry): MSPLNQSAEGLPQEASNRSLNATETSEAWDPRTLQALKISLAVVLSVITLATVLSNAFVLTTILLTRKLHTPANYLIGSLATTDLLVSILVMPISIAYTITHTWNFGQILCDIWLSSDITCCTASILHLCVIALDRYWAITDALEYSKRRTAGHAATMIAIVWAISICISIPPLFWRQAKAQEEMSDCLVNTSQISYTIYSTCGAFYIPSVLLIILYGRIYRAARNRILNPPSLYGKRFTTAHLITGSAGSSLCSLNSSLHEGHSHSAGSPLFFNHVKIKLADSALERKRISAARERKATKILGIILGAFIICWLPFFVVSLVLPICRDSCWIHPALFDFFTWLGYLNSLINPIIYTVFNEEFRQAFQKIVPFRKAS
Chain of D(2) dopamine receptor (P14416 whole entry): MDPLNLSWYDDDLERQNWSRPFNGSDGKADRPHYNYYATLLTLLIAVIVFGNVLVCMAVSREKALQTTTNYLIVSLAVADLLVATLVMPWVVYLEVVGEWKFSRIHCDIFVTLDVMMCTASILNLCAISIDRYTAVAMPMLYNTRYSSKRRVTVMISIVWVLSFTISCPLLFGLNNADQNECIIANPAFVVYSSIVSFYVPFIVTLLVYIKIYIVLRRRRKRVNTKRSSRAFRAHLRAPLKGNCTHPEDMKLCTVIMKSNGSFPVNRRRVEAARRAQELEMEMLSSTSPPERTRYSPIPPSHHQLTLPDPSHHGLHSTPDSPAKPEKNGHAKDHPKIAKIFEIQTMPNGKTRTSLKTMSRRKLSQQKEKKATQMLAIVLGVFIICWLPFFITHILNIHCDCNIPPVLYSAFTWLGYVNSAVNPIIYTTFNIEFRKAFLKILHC
T3 sequence (Q13639 whole entry): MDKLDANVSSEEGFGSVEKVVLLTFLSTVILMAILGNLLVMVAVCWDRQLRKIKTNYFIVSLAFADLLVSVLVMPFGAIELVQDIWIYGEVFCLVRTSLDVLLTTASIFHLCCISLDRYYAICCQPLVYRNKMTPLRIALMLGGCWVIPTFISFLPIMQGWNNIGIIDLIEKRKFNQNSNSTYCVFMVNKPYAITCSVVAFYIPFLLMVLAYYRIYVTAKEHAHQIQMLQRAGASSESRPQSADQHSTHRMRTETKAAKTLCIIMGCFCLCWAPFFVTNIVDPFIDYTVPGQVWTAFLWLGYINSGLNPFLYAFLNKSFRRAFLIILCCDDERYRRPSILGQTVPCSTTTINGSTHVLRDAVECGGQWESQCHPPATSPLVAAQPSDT
Chain of 5-hydroxytryptamine receptor 1D (Cavia porcellus, UniProt Q60484) (Q60484 whole entry): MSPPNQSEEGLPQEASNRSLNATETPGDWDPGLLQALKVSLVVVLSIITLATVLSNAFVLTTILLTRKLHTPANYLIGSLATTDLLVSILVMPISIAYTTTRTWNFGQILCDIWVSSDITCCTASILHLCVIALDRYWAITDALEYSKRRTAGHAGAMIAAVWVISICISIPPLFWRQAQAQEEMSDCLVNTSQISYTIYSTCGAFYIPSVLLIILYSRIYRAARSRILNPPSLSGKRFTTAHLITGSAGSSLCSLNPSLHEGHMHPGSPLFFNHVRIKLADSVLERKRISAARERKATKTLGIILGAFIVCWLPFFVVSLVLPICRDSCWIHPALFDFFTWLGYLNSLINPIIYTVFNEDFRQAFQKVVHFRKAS

Turning to `Cc1ccccc1N1CCN(C(=O)COc2ccc3[nH]cc(CCN)c3c2)CC1`, the IC50 (against D(2) dopamine receptor; in [1]; in [2]; in assay [3]; in assay [4]; in assay [5]) was over 10000 nM throughout. Also, the IC50 (on Histamine H1 receptor; in assay [6]) was over 10000 nM throughout.

As for `CNS(=O)(=O)Cc1ccc2[nH]cc(CCN(C)C)c2c1`, the pD2 in the assay filed under Oryctolagus cuniculus is listed as 5.75.

Regarding `NCCc1c[nH]c2ccc(OCC(=O)NCC(=O)N[C@@H](Cc3ccc(O)cc3)C(N)=O)cc12`, in assay [7], the IC50 – broadly, the concentration at which inhibition is half-maximal – amounted to 60 nM.

Regarding `NCCc1c[nH]c2ccc(OCC(=O)N3CCN(c4cccc5ccccc45)CC3)cc12`, the IC50 (against D(2) dopamine receptor; in assay [8]; in assay [2]; in assay [11]; in assay [12]; in assay [5]) was over 1000 nM each time. Moreover, the IC50 (against Histamine H1 receptor; in [6]) was over 1000 nM throughout. In addition, the Ki (usually a dissociation constant, usually derived from enzyme kinetics or from competition with a known ligand) in assay [9] was found to be 0.95 nM; in assay [10], 8.9 nM. Also, the response in assay [13] was half-maximal at 95 nM (EC50).

Turning to `COc1cccc(N2CCN(C(=O)COc3ccc4[nH]cc(CCN)c4c3)CC2)c1`, the inhibitory constant (Ki) amounted to 2 nM in assay [9] and 9.8 nM in assay [10]. Besides, the EC50 (commonly the concentration giving half of the maximal effect) in [14] worked out at 85 nM.

For `NCCc1c[nH]c2ccc(OCC(=O)N3CCN(c4ccccc4)CC3)cc12`, in the assay filed under Oryctolagus cuniculus, the pD2 is reported as 7.36.
